Assay results from patent publication US20030215462A1, “Use of UGT inhibitors to increase bioavailability” (priority 2001, published 2003).

Experiments:
[1] = system: UGT enzymes of human liver microsomes; assay: Inhibition of raloxifene glucuronidation (G1, G2) in human liver microsomes; type: biochemical; settings: for % of control metabolism (SD, n = 3), raloxifene glucuronide G1 / % of control metabolism (SD, n = 3), raloxifene glucuronide G2: human liver microsomes 250 μg/ml, 15 min
Excerpt: Compounds were eluted using a binary solvent gradient system. […] Solvent B was methanol. […] Detection was at 280 nm.

[2] = system: UGT enzymes of pooled human jejunum microsomes; assay: Inhibition of 2ME2 glucuronidation (MG1) in pooled human jejunum microsomes; type: biochemical; settings: jejunum HJ61, 2ME2 50 μM
Excerpt: Compounds were eluted using a binary solvent gradient system where solvent A was dilute phosphoric acid (pH 3) and solvent B was 80:20 acetonitrile-methanol. […] Detection was at 280 nm.

UGT1A3 = target: T1, UGT1A3 (Homo sapiens, UniProt P35503); assay: Inhibition of raloxifene glucuronidation by recombinant UGT1A3 Supersomes; settings: for activity at 15 min, 10 µM / activity at 15 min, 25 µM / activity at 15 min, 50 µM: human; for activity at 15 min, 10 µM: inhibitor 10 μM; for activity at 15 min, 25 µM: inhibitor 25 μM; for activity at 15 min, 50 µM: inhibitor 50 μM
T1 sequence (P35503 29-534): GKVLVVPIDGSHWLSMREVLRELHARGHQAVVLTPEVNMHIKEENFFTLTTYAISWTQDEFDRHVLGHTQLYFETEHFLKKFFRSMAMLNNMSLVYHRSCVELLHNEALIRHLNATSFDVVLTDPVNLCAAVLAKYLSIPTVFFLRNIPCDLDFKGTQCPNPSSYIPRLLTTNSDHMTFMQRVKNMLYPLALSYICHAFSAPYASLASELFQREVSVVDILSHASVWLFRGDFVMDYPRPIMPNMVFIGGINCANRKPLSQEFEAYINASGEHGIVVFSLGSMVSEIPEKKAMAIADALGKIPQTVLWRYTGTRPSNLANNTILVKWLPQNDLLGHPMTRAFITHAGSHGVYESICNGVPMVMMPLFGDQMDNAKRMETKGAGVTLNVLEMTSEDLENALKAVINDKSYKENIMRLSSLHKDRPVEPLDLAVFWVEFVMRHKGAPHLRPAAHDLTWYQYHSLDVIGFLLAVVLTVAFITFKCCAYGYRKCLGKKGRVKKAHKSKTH
Protocol: (§1) Compounds were eluted using a binary solvent gradient system. Solvent A was water brought to pH 8 with NH4OH. Solvent B was methanol. Solvent flow rate was 1 ml/min and the column temperature was maintained at 50° C. Detection was at 280 nm. […] The system was then returned to the initial conditions and equilibrated for 3 min.

UGT1A9 = target: T2, UGT1A9 (Homo sapiens, UniProt O60656); assay: Inhibition of raloxifene glucuronidation by recombinant UGT1A9 Supersomes; settings: for activity at 15 min, 10 µM / activity at 15 min, 25 µM / activity at 15 min, 50 µM: human, Supersomes with recombinant human UGT1A9, pH 7.5, probe raloxifene 50 μM; for Inhibition of raloxifene glucuronidation, UGT1A9, second line per inhibitor (G2): second line (G2, metabolite not given), raloxifene 50 μM, 250 μg/ml Supersomes, 1 mM UDPGA, 15 min
T2 sequence (O60656 26-530): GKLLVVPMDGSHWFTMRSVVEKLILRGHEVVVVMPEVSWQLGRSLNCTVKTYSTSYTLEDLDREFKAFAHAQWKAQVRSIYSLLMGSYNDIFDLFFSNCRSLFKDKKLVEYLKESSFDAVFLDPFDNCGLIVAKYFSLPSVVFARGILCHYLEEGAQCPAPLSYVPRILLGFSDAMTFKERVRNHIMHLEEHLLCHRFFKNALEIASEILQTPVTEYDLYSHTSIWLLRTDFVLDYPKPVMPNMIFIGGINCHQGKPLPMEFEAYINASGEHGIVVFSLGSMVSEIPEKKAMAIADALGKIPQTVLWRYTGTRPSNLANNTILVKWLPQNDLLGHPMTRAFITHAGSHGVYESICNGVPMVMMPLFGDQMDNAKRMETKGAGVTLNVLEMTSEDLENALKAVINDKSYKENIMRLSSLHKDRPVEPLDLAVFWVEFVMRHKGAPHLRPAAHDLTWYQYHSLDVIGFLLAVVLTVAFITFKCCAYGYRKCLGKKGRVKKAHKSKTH

UGT1A10 = target: T3, UGT1A10 (Homo sapiens, UniProt Q9HAW8); assay: Inhibition of raloxifene glucuronidation by recombinant UGT1A10 Bacculosomes; settings: UGT1A10
T3 sequence (Q9HAW8 26-530): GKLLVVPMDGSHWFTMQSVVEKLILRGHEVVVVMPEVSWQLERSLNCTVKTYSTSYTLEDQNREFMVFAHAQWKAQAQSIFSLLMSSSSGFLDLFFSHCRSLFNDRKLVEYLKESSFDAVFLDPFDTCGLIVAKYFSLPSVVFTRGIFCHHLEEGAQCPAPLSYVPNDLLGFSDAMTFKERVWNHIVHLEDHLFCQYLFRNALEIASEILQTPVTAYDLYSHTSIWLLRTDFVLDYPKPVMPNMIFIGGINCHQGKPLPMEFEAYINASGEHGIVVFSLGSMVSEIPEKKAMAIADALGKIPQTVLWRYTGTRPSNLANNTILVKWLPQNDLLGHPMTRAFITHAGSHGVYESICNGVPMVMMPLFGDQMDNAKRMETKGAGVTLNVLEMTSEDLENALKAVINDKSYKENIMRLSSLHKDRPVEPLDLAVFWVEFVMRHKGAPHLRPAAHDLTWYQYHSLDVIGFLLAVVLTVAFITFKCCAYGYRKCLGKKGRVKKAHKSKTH
Protocol: as §1

[3] = inhibitor 2 μM, raloxifene 50 μM
[4] = inhibitor 5 μM, raloxifene 50 μM
[5] = inhibitor 10 μM, raloxifene 50 μM
[6] = inhibitor 25 μM, raloxifene 50 μM
[7] = inhibitor 50 μM, raloxifene 50 μM
[8] = inhibitor 100 μM, raloxifene 50 μM
[9] = inhibitor 500 μM, raloxifene 50 μM
[10] = liver lot 032101, inhibitor 50 μM
[11] = liver lot 062101, inhibitor 50 μM
[12] = liver lot 083000, inhibitor 50 μM
[13] = raloxifene 50 μM, inhibitor 10 μM
[14] = raloxifene 50 μM, inhibitor 25 μM
[15] = raloxifene 50 μM, inhibitor 50 μM
[16] = raloxifene 50 μM, inhibitor 100 μM
[17] = Supersomes with recombinant human UGT1A3, pH 7.5, probe raloxifene 50 μM, formation of glucuronide G1, % of control metabolism, raloxifene G1, UGT1A3
[18] = Supersomes with recombinant human UGT1A3, pH 7.5, probe raloxifene 50 μM, formation of glucuronide G2, % of control metabolism, raloxifene G2, UGT1A3
[19] = recombinant UGT1A3 Supersomes, pH 7.5, probe raloxifene 50 μM (formation of glucuronide G1), Inhibition of raloxifene glucuronidation, G1, UGT1A3, G1, raloxifene 50 μM, 250 μg/ml Supersomes, 1 mM UDPGA, 15 min
[20] = recombinant UGT1A3 Supersomes, pH 7.5, probe raloxifene 50 μM (formation of glucuronide G2), Inhibition of raloxifene glucuronidation, G2, UGT1A3, G2, raloxifene 50 μM, 250 μg/ml Supersomes, 1 mM UDPGA, 15 min

Compound: O=c1c(O)c(-c2ccc(O)c(O)c2)oc2cc(O)cc(O)c12 [Quercetin]
- % of control metabolism (SD, n = 3), raloxifene glucuronide G1 [1, 3]: 82 (6) %
- % of control metabolism (SD, n = 3), raloxifene glucuronide G1 [1, 4]: 69 (1) %
- % of control metabolism (SD, n = 3), raloxifene glucuronide G1 [1, 5]: 48 (1) %
- % of control metabolism (SD, n = 3), raloxifene glucuronide G1 [1, 6]: 18 (1) %
- % of control metabolism (SD, n = 3), raloxifene glucuronide G1 [1, 7]: 8 (1) %
- % of control metabolism (SD, n = 3), raloxifene glucuronide G1 [1, 8]: 6 (2) %
- % of control metabolism (SD, n = 3), raloxifene glucuronide G1 [1, 9]: 0 (0) %
- % of control metabolism (SD, n = 3), raloxifene glucuronide G2 [1, 3]: 78 (3) %
- % of control metabolism (SD, n = 3), raloxifene glucuronide G2 [1, 4]: 67 (2) %
- % of control metabolism (SD, n = 3), raloxifene glucuronide G2 [1, 5]: 50 (1) %
- % of control metabolism (SD, n = 3), raloxifene glucuronide G2 [1, 6]: 25 (1) %
- % of control metabolism (SD, n = 3), raloxifene glucuronide G2 [1, 7]: 15 (1) %
- % of control metabolism (SD, n = 3), raloxifene glucuronide G2 [1, 8]: 13 (2) %
- % of control metabolism (SD, n = 3), raloxifene glucuronide G2 [1, 9]: 0 (0) %
- % of control metabolism, raloxifene G1 [1, 10]: 25 (1) %
- % of control metabolism, raloxifene G2 [1, 10]: 35 (1) %
- % of control metabolism, raloxifene G1 [1, 11]: 34 (3) %
- % of control metabolism, raloxifene G2 [1, 11]: 35 (3) %
- % of control metabolism, raloxifene G1 [1, 12]: 8 (1) %
- % of control metabolism, raloxifene G2 [1, 12]: 15 (1) %
- % of control metabolism, raloxifene G1 [1, 13]: 48 (1) %
- % of control metabolism, raloxifene G2 [1, 13]: 50 (1) %
- % of control metabolism, raloxifene G1 [1, 14]: 18 (1) %
- % of control metabolism, raloxifene G2 [1, 14]: 25 (1) %
- % of control metabolism, raloxifene G1 [1, 15]: 8 (1) %
- % of control metabolism, raloxifene G2 [1, 15]: 15 (1) %
- % of control metabolism, raloxifene G1 [1, 16]: 6 (2) %
- % of control metabolism, raloxifene G2 [1, 16]: 13 (2) %
- residual metabolism (% of control), 2ME2 MG1 ([2]; inhibitor 25 μM): 56 (2) %
- residual metabolism (% of control), 2ME2 MG1 ([2]; inhibitor 50 μM): 44 (2) %
- residual metabolism (% of control), 2ME2 MG1 ([2]; inhibitor 100 μM): 19 (1) %
- inhibition of raloxifene glucuronidation, in words (UGT1A3; UGT1A3): good inhibitor
- activity at 15 min, 10 µM (UGT1A3; [17]): 81%
- activity at 15 min, 25 µM (UGT1A3; [17]): 53%
- activity at 15 min, 50 µM (UGT1A3; [17]): 28%
- activity at 15 min, 10 µM (UGT1A3; [18]): 56%
- activity at 15 min, 25 µM (UGT1A3; [18]): 49%
- activity at 15 min, 50 µM (UGT1A3; [18]): 25%
- activity at 15 min, 10 µM (UGT1A3; [19]): 72%
- activity at 15 min, 25 µM (UGT1A3; [19]): 52%
- activity at 15 min, 50 µM (UGT1A3; [19]): 28%
- activity at 15 min, 10 µM (UGT1A3; [20]): 73%
- activity at 15 min, 25 µM (UGT1A3; [20]): 49%
- activity at 15 min, 50 µM (UGT1A3; [20]): 25%
- inhibition of raloxifene glucuronidation, in words (UGT1A9; UGT1A9): good inhibitor
- activity at 15 min, 10 µM (UGT1A9; formation of glucuronide G1, % of control metabolism, raloxifene G1, UGT1A9, inhibitor 10 μM): 59%
- activity at 15 min, 25 µM (UGT1A9; formation of glucuronide G1, % of control metabolism, raloxifene G1, UGT1A9, inhibitor 25 μM): 45%
- activity at 15 min, 50 µM (UGT1A9; formation of glucuronide G1, % of control metabolism, raloxifene G1, UGT1A9, inhibitor 50 μM): 26%
- activity at 15 min, 10 µM (UGT1A9; formation of glucuronide G2, % of control metabolism, raloxifene G2, UGT1A9, inhibitor 10 μM): 56%
- activity at 15 min, 25 µM (UGT1A9; formation of glucuronide G2, % of control metabolism, raloxifene G2, UGT1A9, inhibitor 25 μM): 39%
- activity at 15 min, 50 µM (UGT1A9; formation of glucuronide G2, % of control metabolism, raloxifene G2, UGT1A9, inhibitor 50 μM): 24%
- Inhibition of raloxifene glucuronidation, UGT1A9, second line per inhibitor (G2) (UGT1A9; inhibitor 5 μM): 85 (5)
- Inhibition of raloxifene glucuronidation, UGT1A9, second line per inhibitor (G2) (UGT1A9; inhibitor 10 μM): 56 (3)
- Inhibition of raloxifene glucuronidation, UGT1A9, second line per inhibitor (G2) (UGT1A9; inhibitor 25 μM): 39 (2)
- Inhibition of raloxifene glucuronidation, UGT1A9, second line per inhibitor (G2) (UGT1A9; inhibitor 50 μM): 24 (2)
- inhibition of raloxifene glucuronidation, in words (UGT1A10): only a modest effect
